For this data set the following is noted: 293.15 K; 101.33 kPa; Liquid; Vibrating tube method.

± gives the expanded uncertainty stated by the source.

A word on the mass density: it is the mass of a sample divided by its volume. For the molecule `CCCCCCCC[n+]1ccn(C)c1.F[P-](F)(F)(F)(F)F` [1-octyl-3-methylimidazolium hexafluorophosphate], the mass density stood at 1234.55 ± 8.3 kg/m3.

The record behind these values is the NIST ThermoML archive (doi:10.1016/j.fluid.2010.01.026).
